{
  "source": "DBAASP",
  "assay_in_all_cases": "≥ marks a high value that may be exact or a test limit, other limits are often not marked, values filed in µg/mL are converted to µM",
  "key": {"[1]": {"tested_on": "Pseudomonas aeruginosa ATCC 9027"}, "[2]": {"tested_on": "Escherichia coli ATCC 25922"}, "Escherichia coli AB94012": {"tested_on": "Escherichia coli AB94012"}, "[3]": {"tested_on": "Bacillus thuringiensis AB92037"}, "[4]": {"tested_on": "Staphylococcus aureus ATCC 6538"}, "[5]": {"tested_on": "Staphylococcus epidermidis AB208188"}, "[6]": {"tested_on": "Staphylococcus aureus P1374"}, "[7]": {"tested_on": "Staphylococcus aureus P1381"}, "[8]": {"tested_on": "Staphylococcus aureus P1389"}, "[9]": {"tested_on": "Staphylococcus aureus AB208193"}, "[10]": {"tested_on": "Staphylococcus aureus ATCC 25923"}, "[11]": {"tested_on": "Micrococcus luteus AB93113"}, "[12]": {"tested_on": "Staphylococcus epidermidis AB208187"}, "[13]": {"tested_on": "Bacillus subtilis AB91021"}, "[14]": {"tested_on": "Escherichia coli DH5alpha"}, "[15]": {"tested_on": "Staphylococcus epidermidis NBRC 12298"}, "[16]": {"tested_on": "Staphylococcus aureus NBRC 13276"}, "[17]": {"tested_on": "Pseudomonas aeruginosa NBRC 13275"}, "[18]": {"tested_on": "Staphylococcus xylosus DSM 20287"}, "[19]": {"tested_on": "Franconibacter helveticus DSM 18390"}, "[20]": {"tested_on": "Escherichia coli DSM 1116"}, "[21]": {"tested_on": "Bacillus subtilis DSM 347"}, "[22]": {"tested_on": "Pseudomonas aeruginosa PAO1"}, "[23]": {"tested_on": "Pseudomonas aeruginosa PA330"}, "[24]": {"tested_on": "Pseudomonas aeruginosa PA380"}, "Escherichia coli K-12": {"tested_on": "Escherichia coli K-12"}, "[25]": {"tested_on": "Pseudomonas aeruginosa PA214"}, "Staphylococcus aureus": {"tested_on": "Staphylococcus aureus"}, "[26]": {"tested_on": "Salmonella enterica subsp. enterica serovar Typhimurium ATCC 14028"}, "[27]": {"tested_on": "Pseudomonas aeruginosa 25349"}, "Acinetobacter baumannii": {"tested_on": "Acinetobacter baumannii"}, "[28]": {"tested_on": "Salmonella enterica subsp. enterica serovar Typhimurium C77-31"}, "Escherichia coli UB1005": {"tested_on": "Escherichia coli UB1005"}, "[29]": {"tested_on": "Enterococcus faecalis ATCC 29212"}, "[30]": {"tested_on": "Staphylococcus aureus ATCC 29213"}, "Escherichia coli K99": {"tested_on": "Escherichia coli K99"}, "[31]": {"tested_on": "Staphylococcus epidermidis ATCC 12228"}, "[32]": {"tested_on": "Salmonella enterica subsp. enterica serovar Pullorum C79-13"}, "[33]": {"tested_on": "Bacillus subtilis CMCC 63501"}, "Escherichia coli 078": {"tested_on": "Escherichia coli 078"}, "Escherichia coli K88": {"tested_on": "Escherichia coli K88"}, "Escherichia coli": {"tested_on": "Escherichia coli"}, "[34]": {"tested_on": "Trichophyton rubrum ATCC 28189"}, "[35]": {"tested_on": "Candida albicans ATCC 24433"}, "[36]": {"tested_on": "Candida parapsilosis ATCC 22019"}, "[37]": {"tested_on": "Micrococcus luteus DSM 1790"}, "Escherichia coli BL21AI": {"tested_on": "Escherichia coli BL21AI"}},
  "data": [
    {"smiles": "CC[C@H](C)[C@H](NC(=O)[C@H](CCCCN)NC(=O)[C@@H](NC(=O)[C@H](C)NC(=O)[C@H](CC(C)C)NC(=O)[C@H](CCCCN)NC(=O)[C@H](Cc1ccccc1)NC(=O)[C@H](CC(C)C)NC(=O)[C@H](Cc1cnc[nH]1)NC(=O)CNC(=O)[C@H](Cc1ccccc1)NC(=O)[C@@H](N)Cc1ccccc1)[C@@H](C)O)C(=O)N[C@H](C(=O)N1CCC[C@H]1C(=O)N[C@@H](CO)C(=O)N[C@@H](CC(C)C)C(=O)N[C@@H](Cc1ccccc1)C(=O)N[C@@H](CCCN=C(N)N)C(=O)O)[C@@H](C)CC", "note": "[FFGHLFKLATKIIPSLFR]", "values": [
      {"measurement": "MIC", "setting": "[1]", "value": 5.9, "unit": "µM"},
      {"measurement": "MIC", "setting": "[2]", "value": 5.9, "unit": "µM"},
      {"measurement": "MIC", "setting": "Escherichia coli AB94012", "value": 11.7, "unit": "µM"},
      {"measurement": "MIC", "setting": "[3]", "value": 2.9, "unit": "µM"},
      {"measurement": "MIC", "setting": "[4]", "value": 1.5, "unit": "µM"},
      {"measurement": "MIC", "setting": "[5]", "value": 2.9, "unit": "µM"},
      {"measurement": "MIC", "setting": "[6]", "value": 2.9, "unit": "µM"},
      {"measurement": "MIC", "setting": "[7]", "value": 1.5, "unit": "µM"},
      {"measurement": "MIC", "setting": "[8]", "value": 2.9, "unit": "µM"},
      {"measurement": "MIC", "setting": "[9]", "value": 2.9, "unit": "µM"},
      {"measurement": "MIC", "setting": "[10]", "value": 2.9, "unit": "µM"},
      {"measurement": "MIC", "setting": "[11]", "value": 23.4, "unit": "µM"},
      {"measurement": "MIC", "setting": "[12]", "value": 2.9, "unit": "µM"},
      {"measurement": "MIC", "setting": "[13]", "value": 2.9, "unit": "µM"}
    ]},
    {"smiles": "CC[C@H](C)[C@H](NC(=O)CN)C(=O)NCC(=O)N[C@@H](CCCCN)C(=O)N[C@@H](Cc1ccccc1)C(=O)N[C@@H](CC(C)C)C(=O)N[C@@H](Cc1cnc[nH]1)C(=O)N[C@@H](CO)C(=O)N[C@@H](C)C(=O)N[C@@H](CCCCN)C(=O)N[C@@H](CCCCN)C(=O)N[C@@H](Cc1ccccc1)C(=O)NCC(=O)N[C@@H](CCCCN)C(=O)N[C@@H](C)C(=O)N[C@@H](Cc1ccccc1)C(=O)N[C@H](C(N)=O)C(C)C", "note": "[GIGKFLHSAKKFGKAFV]", "values": [
      {"measurement": "MIC", "setting": "[14]", "value": 3.12, "unit": "µM"},
      {"measurement": "MIC", "setting": "[15]", "value": 12.5, "unit": "µM"},
      {"measurement": "MIC", "setting": "[16]", "value": "≥ 50", "unit": "µM"},
      {"measurement": "MIC", "setting": "[17]", "value": 3.12, "unit": "µM"}
    ]},
    {"smiles": "CC[C@H](C)[C@H](N)C(=O)N[C@@H](C)C(=O)N[C@@H](CCCCN)C(=O)N[C@H](C(=O)N[C@@H](C)C(=O)NCC(=O)N[C@@H](CCCCN)C(=O)N[C@H](C(=O)N[C@@H](C)C(=O)N[C@@H](CCCCN)C(=O)N[C@H](C(=O)N[C@@H](C)C(=O)NCC(=O)N[C@@H](CCCCN)C(=O)N[C@H](C(=O)N[C@@H](C)C(=O)N[C@@H](CCCCN)C(=O)N[C@H](C(=O)N[C@@H](C)C(=O)NCC(=O)N[C@@H](CCCCN)C(=O)N[C@H](C(=O)N[C@@H](C)C(=O)N[C@@H](CCCCN)C(N)=O)[C@@H](C)CC)[C@@H](C)CC)[C@@H](C)CC)[C@@H](C)CC)[C@@H](C)CC)[C@@H](C)CC", "note": "[IAKIAGKIAKIAGKIAKIAGKIAK]", "values": [
      {"measurement": "MIC", "setting": "[18]", "value": 0.842, "unit": "µM"},
      {"measurement": "MIC", "setting": "[19]", "value": 1.19, "unit": "µM"},
      {"measurement": "MIC", "setting": "[20]", "value": 1.68, "unit": "µM"},
      {"measurement": "MIC", "setting": "[21]", "value": 0.842, "unit": "µM"}
    ]},
    {"smiles": "CC(C)C[C@H](NC(=O)[C@H](C)NC(=O)[C@H](CCCCN)NC(=O)[C@H](CCCCN)NC(=O)[C@H](CCCCN)NC(=O)[C@H](CCCCN)NC(=O)[C@@H](N)CCCCN)C(=O)N[C@@H](Cc1ccccc1)C(=O)N[C@@H](CC(C)C)C(=O)N[C@@H](CCCCN)C(=O)N[C@@H](CC(C)C)C(=O)N[C@@H](Cc1c[nH]c2ccccc12)C(=O)N[C@@H](C)C(=O)N[C@@H](C)C(=O)N[C@@H](Cc1ccccc1)C(=O)N[C@@H](CC(C)C)C(=O)N[C@@H](C)C(N)=O", "note": "[KKKKKALFLKLWAAFLA]", "values": [
      {"measurement": "MIC", "setting": "[22]", "value": 12.5, "unit": "µM"},
      {"measurement": "MIC", "setting": "[23]", "value": 12.5, "unit": "µM"},
      {"measurement": "MIC", "setting": "[24]", "value": "≥ 50", "unit": "µM"},
      {"measurement": "MIC", "setting": "Escherichia coli K-12", "value": 3.1, "unit": "µM"},
      {"measurement": "MIC", "setting": "[25]", "value": 6.3, "unit": "µM"}
    ]},
    {"smiles": "CC[C@H](C)[C@H](NC(=O)[C@H](Cc1c[nH]c2ccccc12)NC(=O)[C@H](CCCCN)NC(=O)[C@H](CC(C)C)NC(=O)[C@@H](NC(=O)[C@H](CCCCN)NC(=O)CNC(=O)[C@@H](NC(=O)[C@H](CCCCN)NC(=O)[C@H](Cc1c[nH]c2ccccc12)NC(=O)[C@H](CC(C)C)NC(=O)[C@@H](N)CCCN=C(N)N)[C@@H](C)CC)C(C)C)C(N)=O", "note": "[RLWKIGKVLKWI]", "values": [
      {"measurement": "MIC", "setting": "Staphylococcus aureus", "value": 2, "unit": "µM"},
      {"measurement": "MIC", "setting": "[2]", "value": 2, "unit": "µM"},
      {"measurement": "MIC", "setting": "[26]", "value": 2, "unit": "µM"},
      {"measurement": "MIC", "setting": "[27]", "value": 4, "unit": "µM"},
      {"measurement": "MIC", "setting": "Acinetobacter baumannii", "value": 2, "unit": "µM"},
      {"measurement": "MIC", "setting": "[28]", "value": 4, "unit": "µM"},
      {"measurement": "MIC", "setting": "Escherichia coli UB1005", "value": 1, "unit": "µM"},
      {"measurement": "MIC", "setting": "[29]", "value": 4, "unit": "µM"},
      {"measurement": "MIC", "setting": "[30]", "value": 4, "unit": "µM"},
      {"measurement": "MIC", "setting": "Escherichia coli K99", "value": 2, "unit": "µM"},
      {"measurement": "MIC", "setting": "[31]", "value": 4, "unit": "µM"},
      {"measurement": "MIC", "setting": "[32]", "value": 1, "unit": "µM"},
      {"measurement": "MIC", "setting": "[33]", "value": 1, "unit": "µM"},
      {"measurement": "MIC", "setting": "Escherichia coli 078", "value": 2, "unit": "µM"},
      {"measurement": "MIC", "setting": "[10]", "value": 2, "unit": "µM"},
      {"measurement": "MIC", "setting": "Escherichia coli K88", "value": 1, "unit": "µM"},
      {"measurement": "MIC", "setting": "Escherichia coli", "value": 2, "unit": "µM"}
    ]},
    {"smiles": "CC[C@H](C)[C@H](NC(=O)[C@H](CC(C)C)NC(=O)[C@H](CCC(=O)O)NC(=O)[C@H](CO)NC(=O)[C@H](CCCN=C(N)N)NC(=O)[C@@H](N)CO)C(=O)N[C@H](C(=O)N[C@@H](CCCN=C(N)N)C(=O)N[C@@H](CCC(N)=O)C(=O)N[C@@H](CCCN=C(N)N)C(=O)N[C@@H](CC(C)C)C(=O)N[C@@H](Cc1ccccc1)C(N)=O)C(C)C", "note": "[SRSELIVRQRLF]", "values": [
      {"measurement": "MIC", "setting": "Staphylococcus aureus", "value": "> 266", "unit": "µM"},
      {"measurement": "MIC", "setting": "[34]", "value": "≥ 266", "unit": "µM"},
      {"measurement": "MIC", "setting": "[35]", "value": "≥ 266", "unit": "µM"},
      {"measurement": "MIC", "setting": "[36]", "value": "≥ 266", "unit": "µM"},
      {"measurement": "MIC", "setting": "Escherichia coli", "value": "> 266", "unit": "µM"}
    ]},
    {"smiles": "CC[C@H](C)[C@H](NC(=O)[C@H](CCCN=C(N)N)NC(=O)[C@H](CCCN=C(N)N)NC(=O)[C@@H]1CCCN1C(=O)[C@@H]1CCCN1C(=O)[C@H](CCCCN)NC(=O)[C@@H]1CCCN1C(=O)[C@H](CCCN=C(N)N)NC(=O)[C@@H]1CCCN1C(=O)[C@H](CC(C)C)NC(=O)[C@H](Cc1ccc(O)cc1)NC(=O)[C@@H]1CCCN1C(=O)[C@@H]1CCCN1C(=O)[C@H](CCCCN)NC(=O)[C@H](CC(=O)O)NC(=O)[C@@H](N)C(C)C)C(=O)N[C@@H](Cc1ccc(O)cc1)C(=O)N[C@@H](CC(N)=O)C(=O)O", "note": "[VDKPPYLPRPKPPRRIYN]", "values": [
      {"measurement": "MIC", "setting": "[37]", "value": 7.07, "unit": "µM"},
      {"measurement": "MIC", "setting": "Escherichia coli BL21AI", "value": 7.07, "unit": "µM"}
    ]}
  ]
}
